The results in this text go back to patent US4109081A, “1-(3,5-Disubstituted-2,4,6-triiodophenyl)-3-(polyhydroxy-alkyl)urea compounds” (Mallinckrodt, Inc., priority 1975, dated 1978).

A short description of series [1]: aqueous solubility (solubility of the product in water). In kind it is physicochemical.
For series [2], the system named is Sprague-Dawley rats. Briefly: Intracisternal Toxicity in Rats. The format is in vivo, rat (Sprague-Dawley, Carworth). To be noted: two day observation, Example IV at 7.43% iodine, Example V at 13.3% iodine. From the text:
(§1) carried out in aqueous solutions of the compounds of Examples IV and V.
Sprague-Dawley (Carworth) rats were used. In the case of the compound of Example IV, a solution of the compound having an iodine concentration of 7.43% was employed and in the case of the compound of Example V, a solution of the compound having an iodine concentration of 13.3% was employed. The method used was a variation of the procedure outlined by Melartin et al. (Invest. Rad. 5: 13-21, 1970). After dosing, the animals were housed individually and observed for immediate reactions and periodically for a two day observation period. The LD50 values were calculated according to the method of Litchfield and Wilcoxon (J. of Pharmac. and Exptl. Therap. 96:99-115, 1949).

The test system of series [3] is Swiss Albino mice. Kind of series: Intracerebral Toxicity in Mice. In kind it is in vivo, mouse (Swiss Albino, Charles River). To be noted: intracerebral injection, seven day observation; Example IV at 4.3% iodine, Example V at 13.3% iodine. How it is done:
as §1
Swiss Albino mice (charles River) were used. Fixed volumes of aqueous solutions of the iodinated compounds were injected intracerebrally via a 27 gauge needle (1/4 inch in length) according to the method of Haley et al. (Br. J. of Pharmac. 12:12-15, 1957). In the case of the compound of Example IV, a solution of the compound having an iodine concentration of 4.3% was employed and in the case of the compound of Example V, a solution of the compound having an iodine concentration of 13.3% was employed. The animals were observed immediately following injections and daily throughout a seven day observation period. The LD50 values were calculated by the method of Litchfield and Wilcoxon (J. of Pharmac. and Exptl. Therap. 96:99-113, 1949).

Series [4] deals with Swiss Albino mice. Kind of series: Acute Intravenous Toxicity Studies in Mice. The format is in vivo, mouse (Swiss Albino, Charles River). To be noted: lateral tail vein, iodine concentration 28.2%, pH 7.0-7.2, approximately 1 ml./min., seven day observation. As for the experimental part: as §1
Swiss Albino mice (Charles River) were dosed in the lateral tail vein with aqueous solutions of the above-noted iodinated compounds of Examples I, II and III having an iodine concentration of 28.2% with a pH of 7.0-7.2. The solutions were injected at the rate of approximately 1 ml./min. […] The LD50 values were calculated by the method of Litchfield and Wilcoxon (J. of Pharmac. and Exptl. Therap. 96: 99-113, 1949).

For series [5], the system named is dogs. Kind of series: intravenous pyelographic studies in dogs. The format is in vivo, dog. To be noted: for visualization of kidneys, ureters and urinary bladder: 140 mg. I/kg., dogs. How it is done:
The compounds of Examples I, II and III were employed in intravenous pyelographic studies carried out in dogs. At a dosage of 140 mg. […] At a dosage of 167 mg.

The mark [6] stands for this setting: water, read-out: solubility of the product in water.

Values after ≈ are worked out from the molar mass of the structure shown. Like-named read-outs stand apart in the source and are kept apart here.

As for `COc1c(I)cc(I)c(NC(=O)N(C)C[C@H](O)[C@@H](O)[C@H](O)[C@H](O)CO)c1I` [3-[3-methoxy-2,4,6-triiodophenyl]-1-methyl-1-(D-gluco-2,3,4,5,6-pentahydroxyhexyl)urea, reference compound], the solubility (commonly the dissolved amount per volume that the medium holds) in series [1] (insufficiently water-soluble for toxicity testing in aqueous solution, read-out: water solubility) was under 10 mg/mL.

`CNC(=O)c1c(I)c(NC(=O)N(C)C[C@H](O)[C@@H](O)[C@H](O)[C@H](O)CO)c(I)c(C(=O)N(C)C)c1I` [Example I, 3-[3-(N,N-Dimethylcarbamyl)-2,4,6-triiodo-5-(N-methylcarbamyl)phenyl]-1-methyl-1-(D-gluco-2,3,4,5,6-pentahydroxylhexyl)urea]: the “LD50 Intracisternal (Rats)” value in series [2] was determined as 21 mg. I/kg. body wt. Also, in series [1] (setting [6]), the solubility is at least 1000 mg/mL. In series [3], the “LD50 Intracerebral (Mice)” value was 1,500 mg. I/kg. body wt. In addition, in series [4], the “LD50 I.V. (Mice)” value was 1,878 mg. I/kg. body wt. Besides, in series [5] (five minutes after injection), the “visualization of kidneys, ureters and urinary bladder” value is “good visualization of kidneys, ureters and urinary bladder”.

Consider `CNC(=O)c1c(I)c(NC(=O)N[C@@H](C=O)[C@@H](O)[C@H](O)[C@H](O)CO)c(I)c(N(C)C(C)=O)c1I` [Example III, 5-{3-[2-(D-Gluco-2-deoxy-3,4,5,6-tetrahydroxy-1-oxohexyl)]ureido}-2,4,6-triiodo-N-methyl-3-(N-methylacetamido)-benzamide], for which, in series [2], the “LD50 Intracisternal (Rats)” value is under 40 mg. I/kg. body wt. Moreover, the solubility in series [1] (setting [6]) was at least 1000 mg/mL. The “LD50 Intracerebral (Mice)” value in series [3] is 1,460 mg. I/kg. body wt. The “LD50 I.V. (Mice)” value in series [4] is 6,800 mg. I/kg. body wt. For the same compound, the “visualization of the kidneys and ureters” value in series [5] (167 mg. I/kg., five minutes after injection, dog) is “better visualization of the kidneys with some visualization of the ureters”. For the same compound, the “visualization of the kidney” value in series [5] (167 mg. I/kg., one minute after injection, dog) is on record as “a shadow of the kidney”.

In the case of `CNC(=O)c1c(I)c(NC(=O)N[C@@H](C=O)[C@@H](O)[C@H](O)[C@H](O)CO)c(I)c(C(=O)N(C)C)c1I` [Example II], the “LD50 Intracisternal (Rats)” value in series [2] was 17 mg. I/kg. body wt. Besides, in series [1] (setting [6]), the solubility was at least 1000 mg/mL. In addition, the “LD50 Intracerebral (Mice)” value in series [3] is listed as 1,720 mg. I/kg. body wt. The “LD50 I.V. (Mice)” value in series [4] is given as 4,817 mg. I/kg. body wt. In series [5] (five minutes after injection), the “visualization of kidneys, ureters and urinary bladder” value was “good visualization of kidneys, ureters and urinary bladder”.

Take `CNC(=O)c1c(I)c(NC(C)=O)c(I)c(NC(=O)N[C@@H](C=O)[C@@H](O)[C@H](O)[C@H](O)CO)c1I` [Example IV]: the “LD50 Intracisternal (Rats)” value in series [2] is given as 62 mg. I/kg. body wt. For the same compound, the solubility in series [1] (setting [6]) fell in the range of 180 to 200 mg/mL (≈ 228 to 253 mM). Moreover, the “LD50 Intracerebral (Mice)” value in series [3] is listed as over 350 mg. I/kg. body wt.

As for `CNC(=O)c1c(I)c(NC(=O)N[C@@H](C=O)[C@@H](O)[C@H](O)[C@H](O)CO)c(I)c(C(=O)NC)c1I` [Example V, 5-{3-[2-(D-gluco-2-deoxy-3,4,5,6-tetrahydroxy-1-oxohexyl)]ureido}-2,4,6-tri-iodo-N,N'-dimethylisophthalamide], the “LD50 Intracisternal (Rats)” value in series [2] was over 266 mg. I/kg. body wt. Besides, in series [1] (water, depending upon the method employed, read-out: aqueous solubility), the solubility was 27 to 80 mg/mL (≈ 34.2 to 101 mM). In addition, the “LD50 Intracerebral (Mice)” value in series [3] is on record as over 899 mg. I/kg. body wt.

In the case of `CNC(=O)c1c(I)c(NC(=O)N[C@@H](CO)[C@@H](O)[C@H](O)[C@H](O)CO)c(I)c(N(CCO)C(C)=O)c1I` [Example VI, 3-{3-[1-(D-gluco-2-deoxy-1,3,4,5,6-pentahydroxyhexyl)]ureido}-5-[N-(2-hydroxyethyl)acetamido]-2,4,6-triiodo-N-methylbenzamide], the solubility in series [1] (water, read-out: water solubility) was about 780 mg/mL (≈ 933 mM).
